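Exposure lasted 48 hours, with cells grown in 96-well plates and compounds tested at five concentrations. Here, GI50 denotes the concentration required for 50% inhibition of growth. TGI is the concentration that stops growth completely.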
What was measured:
Test in all cases: NCI tumour cell line growth inhibition, 48 h
786-0 renal = test system: 786-0 renal
A498 renal = test system: A498 renal
A549 NSCLC = test system: A549 NSCLC
ACHN renal = test system: ACHN renal
BT-549 breast = test system: BT-549 breast
CAKI-1 renal = test system: CAKI-1 renal
CCRF-CEM leukemia = test system: CCRF-CEM leukemia
COLO 205 colon = test system: COLO 205 colon
DU-145 prostate = test system: DU-145 prostate
EKVX NSCLC = test system: EKVX NSCLC
HCC-2998 colon = test system: HCC-2998 colon
HCT-116 colon = test system: HCT-116 colon
HCT-15 colon = test system: HCT-15 colon
HOP-62 NSCLC = test system: HOP-62 NSCLC
HOP-92 NSCLC = test system: HOP-92 NSCLC
HS 578T breast = test system: HS 578T breast
HT29 colon = test system: HT29 colon
IGROV1 ovarian = test system: IGROV1 ovarian
K-562 leukemia = test system: K-562 leukemia
KM12 colon = test system: KM12 colon
LOX IMVI melanoma = test system: LOX IMVI melanoma
M14 melanoma = test system: M14 melanoma
MALME-3M melanoma = test system: MALME-3M melanoma
MCF7 breast = test system: MCF7 breast
MDA-MB-231 breast = test system: MDA-MB-231 breast
MDA-MB-435 = test system: MDA-MB-435
MOLT-4 leukemia = test system: MOLT-4 leukemia
NCI-H23 lung = test system: NCI-H23 lung
NCI-H460 lung = test system: NCI-H460 lung
NCI-H522 lung = test system: NCI-H522 lung
NCI/ADR-RES ovarian = test system: NCI/ADR-RES ovarian
OVCAR-3 ovarian = test system: OVCAR-3 ovarian
OVCAR-4 ovarian = test system: OVCAR-4 ovarian
OVCAR-5 ovarian = test system: OVCAR-5 ovarian
OVCAR-8 ovarian = test system: OVCAR-8 ovarian
PC-3 prostate = test system: PC-3 prostate
RPMI-8226 leukemia = test system: RPMI-8226 leukemia
RXF 393 renal = test system: RXF 393 renal
SF-268 CNS = test system: SF-268 CNS
SF-295 CNS = test system: SF-295 CNS
SF-539 CNS = test system: SF-539 CNS
SK-MEL-2 melanoma = test system: SK-MEL-2 melanoma
SK-MEL-28 melanoma = test system: SK-MEL-28 melanoma
SK-MEL-5 melanoma = test system: SK-MEL-5 melanoma
SK-OV-3 ovarian = test system: SK-OV-3 ovarian
SN12C renal = test system: SN12C renal
SNB-19 CNS = test system: SNB-19 CNS
SR leukemia = test system: SR leukemia
SW-620 colon = test system: SW-620 colon
T-47D breast = test system: T-47D breast
TK-10 renal = test system: TK-10 renal
U251 CNS = test system: U251 CNS
UACC-257 melanoma = test system: UACC-257 melanoma
UACC-62 melanoma = test system: UACC-62 melanoma
UO-31 renal = test system: UO-31 renal

With `CC(=O)Oc1cn(-c2ccc(Cl)cc2)nc1C1=NN(C(C)=O)C(c2ccc(F)cc2F)O1` (stereo not given) the GI50 (786-0 renal) was 26.1 µM, the TGI (786-0 renal) was 70.3 µM and the GI50 (A498 renal) was 29.1 µM. The TGI (A498 renal) was 66.4 µM, the GI50 (A549 NSCLC) was 33.2 µM and the TGI (A549 NSCLC) was over 100 µM. For the same compound, the GI50 (ACHN renal) was 44.3 µM, the TGI (ACHN renal) was over 100 µM and the GI50 (BT-549 breast) was 19.5 µM. It also gave a TGI (BT-549 breast) of 54.7 µM, a GI50 (CAKI-1 renal) of 35.6 µM and a TGI (CAKI-1 renal) of 79.8 µM. The GI50 (CCRF-CEM leukemia) was 27.5 µM, the TGI (CCRF-CEM leukemia) was over 100 µM and the GI50 (COLO 205 colon) was 42.7 µM. For the same compound, the TGI (COLO 205 colon) was over 100 µM, the GI50 (DU-145 prostate) was 39.2 µM and the TGI (DU-145 prostate) was over 100 µM. The GI50 (EKVX NSCLC) was 28.5 µM, the TGI (EKVX NSCLC) was 83 µM and the GI50 (HCC-2998 colon) was 35.7 µM. For the same compound, the TGI (HCC-2998 colon) was 55.3 µM, the GI50 (HCT-116 colon) was 33.4 µM and the TGI (HCT-116 colon) was over 100 µM. The GI50 (HCT-15 colon) was 32.2 µM, the TGI (HCT-15 colon) was over 100 µM and the GI50 (HOP-62 NSCLC) was 36.2 µM. For the same compound, the TGI (HOP-62 NSCLC) was over 100 µM, the GI50 (HOP-92 NSCLC) was 20.6 µM and the TGI (HOP-92 NSCLC) was 71.6 µM. It also gave a GI50 (HS 578T breast) of 31.8 µM, a TGI (HS 578T breast) of 88.8 µM and a GI50 (HT29 colon) of 40.1 µM. It also gave a TGI (HT29 colon) of over 100 µM, a GI50 (IGROV1 ovarian) of 13.4 µM and a TGI (IGROV1 ovarian) of 76.2 µM. The GI50 (K-562 leukemia) was 30 µM, the TGI (K-562 leukemia) was over 100 µM and the GI50 (KM12 colon) was 25.4 µM. For the same compound, the TGI (KM12 colon) was 84.2 µM, the GI50 (LOX IMVI melanoma) was 30.1 µM and the TGI (LOX IMVI melanoma) was over 100 µM. The GI50 (M14 melanoma) was 31.4 µM, the TGI (M14 melanoma) was over 100 µM and the GI50 (MALME-3M melanoma) was 14.8 µM. The TGI (MALME-3M melanoma) was 63.5 µM, the GI50 (MCF7 breast) was 30 µM and the TGI (MCF7 breast) was over 100 µM. For the same compound, the GI50 (MDA-MB-231 breast) was 30.4 µM, the TGI (MDA-MB-231 breast) was over 100 µM and the GI50 (MDA-MB-435) was 27.9 µM. For the same compound, the TGI (MDA-MB-435) was 89.5 µM, the GI50 (MOLT-4 leukemia) was 18.5 µM and the TGI (MOLT-4 leukemia) was 94 µM. For the same compound, the GI50 (NCI-H23 lung) was 41.6 µM, the TGI (NCI-H23 lung) was over 100 µM and the GI50 (NCI-H460 lung) was 34.4 µM. For the same compound, the TGI (NCI-H460 lung) was over 100 µM, the GI50 (NCI-H522 lung) was 45.6 µM and the TGI (NCI-H522 lung) was over 100 µM. The GI50 (NCI/ADR-RES ovarian) was 42.9 µM, the TGI (NCI/ADR-RES ovarian) was over 100 µM and the GI50 (OVCAR-3 ovarian) was 19.7 µM. It also gave a TGI (OVCAR-3 ovarian) of 75.9 µM, a GI50 (OVCAR-4 ovarian) of 74.3 µM and a TGI (OVCAR-4 ovarian) of over 100 µM. For the same compound, the GI50 (OVCAR-5 ovarian) was 44.4 µM, the TGI (OVCAR-5 ovarian) was over 100 µM and the GI50 (OVCAR-8 ovarian) was 34.6 µM. The TGI (OVCAR-8 ovarian) was over 100 µM, the GI50 (PC-3 prostate) was 27.9 µM and the TGI (PC-3 prostate) was over 100 µM. The GI50 (RPMI-8226 leukemia) was 20.5 µM, the TGI (RPMI-8226 leukemia) was 54.8 µM and the GI50 (RXF 393 renal) was 23.9 µM. For the same compound, the TGI (RXF 393 renal) was over 100 µM, the GI50 (SF-268 CNS) was 29.6 µM and the TGI (SF-268 CNS) was over 100 µM. It also gave a GI50 (SF-295 CNS) of 20.2 µM, a TGI (SF-295 CNS) of 51.3 µM and a GI50 (SF-539 CNS) of 29.8 µM. The TGI (SF-539 CNS) was over 100 µM, the GI50 (SK-MEL-2 melanoma) was 74 µM and the TGI (SK-MEL-2 melanoma) was over 100 µM. For the same compound, the GI50 (SK-MEL-28 melanoma) was 50.2 µM, the TGI (SK-MEL-28 melanoma) was over 100 µM and the GI50 (SK-MEL-5 melanoma) was 18.4 µM. For the same compound, the TGI (SK-MEL-5 melanoma) was 38.4 µM, the GI50 (SK-OV-3 ovarian) was 50.4 µM and the TGI (SK-OV-3 ovarian) was over 100 µM. The GI50 (SN12C renal) was 33.6 µM, the TGI (SN12C renal) was over 100 µM and the GI50 (SNB-19 CNS) was 48.7 µM. For the same compound, the TGI (SNB-19 CNS) was over 100 µM, the GI50 (SR leukemia) was 35.8 µM and the TGI (SR leukemia) was 85.4 µM. The GI50 (SW-620 colon) was 41.4 µM, the TGI (SW-620 colon) was over 100 µM and the GI50 (T-47D breast) was 67.3 µM. For the same compound, the TGI (T-47D breast) was over 100 µM, the GI50 (TK-10 renal) was 21.1 µM and the TGI (TK-10 renal) was 61.9 µM. The GI50 (U251 CNS) was 38.5 µM, the TGI (U251 CNS) was over 100 µM and the GI50 (UACC-257 melanoma) was 27.2 µM. For the same compound, the TGI (UACC-257 melanoma) was 81.6 µM, the GI50 (UACC-62 melanoma) was 28.8 µM and the TGI (UACC-62 melanoma) was 96.3 µM. The GI50 (UO-31 renal) was 31.8 µM and the TGI (UO-31 renal) was over 100 µM.

— PubChem BioAssay (NCI)
